Results on 29 molecules are retold here after patent US7875647B2, “Heteroaryl-pyrazole derivatives as cannabinoid CB1 receptor antagonists” (Green Cross Corporation, priority 2006, dated 2011).

The IC50 is the concentration needed to halve the response being measured.

Where two headings read alike, the source gives them in different places.

The target in the assay is T1, Cannabinoid-1 receptor (CB1R) (Rattus norvegicus, UniProt P20272).
T1 construct: The tissue obtained from the brain of SD rats was homogenized; from tissue; host or cells: brain of SD rats (membrane pellet of the homogenate)
T1 sequence (P20272 whole entry): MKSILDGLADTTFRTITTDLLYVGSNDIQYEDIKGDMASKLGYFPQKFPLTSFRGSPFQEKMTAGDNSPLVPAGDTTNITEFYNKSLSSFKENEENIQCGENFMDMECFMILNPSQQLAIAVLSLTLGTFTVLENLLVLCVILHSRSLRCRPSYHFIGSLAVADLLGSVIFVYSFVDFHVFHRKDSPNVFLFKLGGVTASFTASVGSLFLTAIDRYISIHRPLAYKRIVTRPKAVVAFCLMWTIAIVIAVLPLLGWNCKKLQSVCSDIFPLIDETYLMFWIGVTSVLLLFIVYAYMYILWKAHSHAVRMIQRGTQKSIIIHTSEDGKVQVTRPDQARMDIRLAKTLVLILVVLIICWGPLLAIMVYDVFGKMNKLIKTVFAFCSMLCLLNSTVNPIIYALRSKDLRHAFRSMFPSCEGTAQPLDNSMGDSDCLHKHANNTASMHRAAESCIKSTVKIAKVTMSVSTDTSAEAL
Kind of assay: Cannabinoid-1 receptor (CB1R) binding affinity assay ([3H]CP-55940, rat CB-1 receptor binding protocol). Conditions: brain tissue of SD rats, [3H]CP-55940, 30° C. 60 min. As for the experimental part: The tissue obtained from the brain of SD rats was homogenized with a Dounce homogenate system in TME (50 mM Tris, 3 mM MgCl2 and 1 mM EDTA, pH 7.4) at 4° C., and the homogenate was centrifuged at 48,000 g for 30 min. at 4° C. The pellet was resuspended in 5 ml of TME and the suspension was divided into aliquots and stored at −70° C. until its use in the following assay.
The tissue concentrations were determined by Bradford protein analysis, and 148 μl of brain tissue of the required concentration was added to the plate. The plate was covered and placed in a 30° C. incubator for 60 min, and then transformed on GF/B filtermat pretreated in polyethylenimine (PEI) using a cell harvester. Each filter was washed five times and dried at 60° C. for 1 hr. Then, the degree of radioactivity retained by the filter was measured using Wallac Microbeta™ (PerkinElmer Life Sciences, Inc., Massachusetts, U.S.A.) and the activity of the compound for inhibiting CB1 receptor was determined therefrom.

In the case of `CCCCCn1nnc(-c2nn(-c3ccc(Cl)cc3Cl)c(-c3ccc(Cl)cc3)c2C)n1` [Example 574, 5-(5-(4-Chlorophenyl)-1-(2,4-dichlorophenyl)-4-methyl-1H-pyrazol-3-yl)-2-pentyl-2H-tetrazole], the IC50 (read-out: IC50) amounted to 122 nM.
On the same count and under the same terms, the figure for `CCc1c(-c2nnc(C3(C)CC3)s2)nn(-c2ccc(Cl)cc2Cl)c1-c1ccc(Br)cc1` [Example 470, 2-(5-(4-bromophenyl)-1-(2,4-dichlorophenyl)-4-ethyl-1H-pyrazol-3-yl)-5-(1-methylcyclopropyl)-1,3,4-thiadiazole] is 11.8 nM; for `CC(C)(C)c1nnc(-c2nn(-c3ccc(Cl)cc3Cl)c(-c3ccc(Cl)cc3)c2CN2CCOC2=O)o1` [Example 307, 3-((3-(5-tert-butyl-1,3,4-oxadiazol-2-yl)-5-(4-chlorophenyl)-1-(2,4-dichlorophenyl)-1H-pyrazol-4-yl)methyl)oxazolidin-2-one] it is 125 nM; for `CCc1c(-c2nnc(CC3CCCCC3)o2)nn(-c2ccc(Cl)cc2Cl)c1-c1ccc(Br)cc1` [Example 55, 2-(5-(4-bromophenyl)-1-(2,4-dichlorophenyl)-4-ethyl-1H-pyrazol-3-yl)-5-(cyclohexylmethyl)-1,3,4-oxadiazole] it is 10.3 nM.
The same measure, in the same setting: the figure for `CCc1c(-c2nnc(C3(c4ccccc4F)CC3)o2)nn(-c2ccc(Cl)cc2Cl)c1-c1ccc(Cl)cc1` [Example 282, 2-(5-(4-chlorophenyl)-1-(2,4-dichlorophenyl)-4-ethyl-1H-pyrazol-3-yl)-5-(1-(2-fluorophenyl)cyclopropyl)-1,3,4-oxadiazole] is 4.08 nM; for `CCc1c(-c2nnc(C3(c4ccc(F)cc4)CC3)o2)nn(-c2ccc(Cl)cc2Cl)c1-c1ccc(Br)cc1` [Example 272, 2-(5-(4-bromophenyl)-1-(2,4-dichlorophenyl)-4-ethyl-1H-pyrazol-3-yl)-5-(1-(4-fluorophenyl)cyclopropyl)-1,3,4-oxadiazole] it is 5.8 nM; for `Cc1c(-c2nnc(C(C)(C)C)s2)nn(-c2ccccc2Cl)c1-c1ccc(Br)cc1` [Example 425, 2-(5-(4-bromophenyl)-1-(2-chlorophenyl)-4-methyl-1H-pyrazol-3-yl)-5-tert-butyl-1,3,4-thiadiazole] it is 11.2 nM.
The same measure, in the same setting: the figure for `CCc1c(-c2nnc(C3(CC)CC3)s2)nn(-c2ccc(Cl)cc2Cl)c1-c1ccc(Br)cc1` [Example 490, 2-(5-(4-bromophenyl)-1-(2,4-dichlorophenyl)-4-ethyl-1H-pyrazol-3-yl)-5-(1-ethylcyclopropyl)-1,3,4-thiadiazole] is 19.8 nM.
Molecule `CCCCCOC(C)(C)c1nnc(-c2nn(-c3ccc(Cl)cc3Cl)c(-c3ccc(Cl)cc3)c2C)o1` [Example 244, 2-(5-(4-chlorophenyl)-1-(2,4-dichlorophenyl)-4-methyl-1H-pyrazol-3-yl)-5-(2-(pentyloxy)propan-2-yl)-1,3,4-oxadiazole] had an IC50 (IC50(nM)) of 15.1 nM.
Same read-out and setting: the figure for `CCCCCOC(C)(C)c1nnc(-c2nn(-c3ccc(Cl)cc3Cl)c(-c3ccc(Cl)cc3)c2C)s1` [Example 461, 2-(5-(4-chlorophenyl)-1-(2,4-dichlorophenyl)-4-methyl-1H-pyrazol-3-yl)-5-(2-(pentyloxy)propan-2-yl)-1,3,4-thiadiazole] is 13.7 nM.
Turning to `CCC(C)c1nc(-c2nn(-c3ccc(Cl)cc3Cl)c(-c3ccc(Cl)cc3)c2C)nn1CC` (centres unmarked) [Example 632, 5-sec-butyl-3-(5-(4-chlorophenyl)-1-(2,4-dichlorophenyl)-4-methyl-1H-pyrazol-3-yl)-1-ethyl-1H-1,2,4-triazole], the 50% inhibitory concentration (IC50) (read-out: IC50) turned out to be 834 nM.
The same measure, in the same setting: the figure for `CCC(C)(C)c1nnc(-c2nn(-c3ccc(Cl)cc3Cl)c(-c3ccc(Cl)cc3)c2Cl)o1` [Example 334, 2-(4-chloro-5-(4-chlorophenyl)-1-(2,4-dichlorophenyl)-1H-pyrazol-3-yl)-5-tert-pentyl-1,3,4-oxadiazole] is 51 nM; for `Cc1c(-c2nnn(CCc3ccccc3)n2)nn(-c2ccc(Cl)cc2Cl)c1-c1ccc(Cl)cc1` [Example 592, 5-(5-(4-Chlorophenyl)-1-(2,4-dichlorophenyl)-4-methyl-1H-pyrazol-3-yl)-2-phenethyl-2H-tetrazole] it is 122 nM.
Same read-out and setting: the figure for `CCCCCc1nnc(-c2nn(-c3ccc(Cl)cc3Cl)c(-c3ccc(Cl)cc3)c2C)s1` [Example 361, 2-(5-(4-Chlorophenyl)-1-(2,4-dichlorophenyl)-4-methyl-1H-pyrazol-3-yl)-5-pentyl-1,3,4-thiadiazole] is 69.2 nM.
Still for that read-out and setting: the figure for `CCc1c(-c2nnc(CC3CCCCC3)s2)nn(-c2ccc(Cl)cc2Cl)c1-c1ccc(Br)cc1` [Example 386, 2-(5-(4-bromophenyl)-1-(2,4-dichlorophenyl)-4-ethyl-1H-pyrazol-3-yl)-5-(cyclohexylmethyl)-1,3,4-thiadiazole] is 13.2 nM; for `CCc1c(-c2nnc(C3CCCC3)s2)nn(-c2ccc(Cl)cc2Cl)c1-c1ccc(Br)cc1` [Example 376, 2-(5-(4-Bromophenyl)-1-(2,4-dichlorophenyl)-4-ethyl-1H-pyrazol-3-yl)-5-cyclopentyl-1,3,4-thiadiazole] it is 18.7 nM.
Take `C=CCOC(C)(C)c1nnc(-c2nn(-c3ccc(Cl)cc3Cl)c(-c3ccc(Br)cc3)c2CC)o1` [Example 238, 2-(2-(allyloxy)propan-2-yl)-5-(5-(4-bromophenyl)-1-(2,4-dichlorophenyl)-4-ethyl-1H-pyrazol-3-yl)-1,3,4-oxadiazole]: the IC50 (read-out: IC50) amounted to 18.4 nM.
Consider `Cc1c(-c2nnc(CC(F)(F)F)o2)nn(-c2ccc(Cl)cc2Cl)c1-c1ccc(Cl)cc1` [Example 136, 2-(5-(4-chlorophenyl)-1-(2,4-dichlorophenyl)-4-methyl-1H-pyrazol-3-yl)-5-(2,2,2-trifluoroethyl)-1,3,4-oxadiazole], for which, where the note is “read-out: IC50”, the IC50 turned out to be 74.2 nM.
In the case of `CC(C)(C)c1nnc(-c2nn(-c3ccc(Cl)cc3Cl)c(-c3ccc(Cl)cc3)c2Cn2cccc2)o1` [Example 299, 2-(4-((1H-pyrrol-1-yl)methyl)-5-(4-chlorophenyl)-1-(2,4-dichlorophenyl)-1H-pyrazol-3-yl)-5-tert-butyl-1,3,4-oxadiazole], the IC50 (read-out: IC50) came to 38.4 nM.
On the same count and under the same terms, the figure for `Clc1ccc(-c2c(Cl)c(-c3nnc(C4CCC4)s3)nn2-c2ccc(Cl)cc2Cl)cc1` [Example 536, 2-(4-chloro-5-(4-chlorophenyl)-1-(2,4-dichlorophenyl)-1H-pyrazol-3-yl)-5-cyclobutyl-1,3,4-thiadiazole] is 199 nM; for `C=CCOC(C)(C)c1nnc(-c2nn(-c3ccc(Cl)cc3Cl)c(-c3ccc(Cl)cc3)c2C)o1` [Example 237, 2-(2-(allyloxy)propan-2-yl)-5-(5-(4-chlorophenyl)-1-(2,4-dichlorophenyl)-4-methyl-1H-pyrazol-3-yl)-1,3,4-oxadiazole] it is 17.3 nM; for `CCCCC(C)(C)c1nnc(-c2nn(-c3ccc(Cl)cc3Cl)c(-c3ccc(Cl)cc3)c2C)s1` [Example 406, 2-(5-(4-chlorophenyl)-1-(2,4-dichlorophenyl)-4-methyl-1H-pyrazol-3-yl)-5-(2-methylhexan-2-yl)-1,3,4-thiadiazole] it is 27.4 nM.
Same read-out and setting: the figure for `CCC(C)c1nnc(-c2nn(-c3ccc(Cl)cc3Cl)c(-c3ccc(Br)cc3)c2C)s1` (centres unmarked) [Example 403, 2-(5-(4-bromophenyl)-1-(2,4-dichlorophenyl)-4-methyl-1H-pyrazol-3-yl)-5-sec-butyl-1,3,4-thiadiazole] is 10.7 nM; for `Cc1c(-c2nnc(C(C)(C)C3CCCC3)o2)nn(-c2ccc(Cl)cc2Cl)c1-c1ccc(Cl)cc1` [Example 63, 2-(5-(4-chlorophenyl)-1-(2,4-dichlorophenyl)-4-methyl-1H-pyrazol-3-yl)-5-(2-cyclopentylpropan-2-yl)-1,3,4-oxadiazole] it is 19.1 nM.
On the same count and under the same terms, the figure for `Cc1c(-c2nnnn2C23CC4CC(CC(C4)C2)C3)nn(-c2ccc(Cl)cc2Cl)c1-c1ccc(Cl)cc1` [Example 605, 1-Adamantyl-5-(5-(4-chlorophenyl)-1-(2,4-dichlorophenyl)-4-methyl-1H-pyrazol-3-yl)-1H-tetrazole] is 128 nM.
As for `CCc1c(-c2nnc(C3(C#N)CC3)o2)nn(-c2ccc(Cl)cc2Cl)c1-c1ccc(Cl)cc1` [Example 268, 1-(5-(5-(4-chlorophenyl)-1-(2,4-dichlorophenyl)-4-ethyl-1H-pyrazol-3-yl)-1,3,4-oxadiazol-2-yl)cyclopropanecarbonitrile], the IC50 (read-out: IC50) came out at 83.8 nM.
On to `Cc1c(-c2nnn(Cc3ccco3)n2)nn(-c2ccc(Cl)cc2Cl)c1-c1ccc(Cl)cc1` [Example 594, 5-(5-(4-Chlorophenyl)-1-(2,4-dichlorophenyl)-4-methyl-1H-pyrazol-3-yl)-2-(furan-2-ylmethyl)-2H-tetrazole], for which the half-maximal inhibitory concentration (IC50) (read-out: IC50) turned out to be 93.8 nM.
Take `Cc1c(-c2nnnn2Cc2ccsc2)nn(-c2ccc(Cl)cc2Cl)c1-c1ccc(Cl)cc1` [Example 597, 5-(5-(4-Chlorophenyl)-1-(2,4-dichlorophenyl)-4-methyl-1H-pyrazol-3-yl)-1-(thiophen-3-ylmethyl)-1H-tetrazole]: the IC50 (read-out: IC50) stood at 39.8 nM.
On the same count and under the same terms, the figure for `Cc1c(-c2nnn(CC3CCCCC3)n2)nn(-c2ccc(Cl)cc2Cl)c1-c1ccc(Cl)cc1` [Example 590, 5-(5-(4-Chlorophenyl)-1-(2,4-dichlorophenyl)-4-methyl-1H-pyrazol-3-yl)-2-(cyclohexylmethyl)-2H-tetrazole] is 85.3 nM.
